Patent US20190015379A1, “USE OF DIANHYDROGALACTITOL AND ANALOGS AND DERIVATIVES THEREOF, TOGETHER WITH RADIATION, TO TREAT NON-SMALL-CELL CARCINOMA OF THE LUNG AND GLIOBLASTOMA MULTIFORME AND SUPPRESS PROLIFERATION OF CANCER STEM CELLS” (DelMar Pharmaceuticals, Inc., priority 2014, published 2019)
Entries after “also recorded” stand apart in the source; their conditions may differ.

Columns and labels:
[1] = in vivo; cited from earlier work
[2] = Phase I/II dose-escalation study, plasma pharmacokinetics; type: in vivo, human
From the text: The methodology of the study reported in this Example is as follows: An open-label, single arm Phase I/II dose-escalation study designed to evaluate the safety, tolerability, pharmacokinetics and anti-tumor activity of dianhydrogalactitol in patients with: (i) histologically confirmed initial diagnosis of primary WHO Grade IV malignant GBM, now recurrent, or (ii) progressive secondary brain tumor, having failed standard brain radiotherapy, and with brain tumor progression after at least one line of systemic therapy. The study utilizes a 3+3 dose escalation design, until the MTD or the maximum specified dose is reached. Patients receive dianhydrogalactitol intravenously at the assigned dose on days 1, 2, and 3 of each 21-day treatment cycle. In Phase II, additional patients will be treated at the MTD (or other selected optimum Phase II dose) to measure tumor responses. All patients enrolled have previously been treated with surgery and/or radiation, if appropriate, and must have failed both bevacizumab and TMZ, unless contraindicated. For these studies, the following is a summary of the inclusion criteria: (1) Patients must be greater than or equal to 18 years old. […]

[3] = system: CSC and non-CSC cultures derived from primary GBM tissue; assay: Cell viability (CellTiter-Glo) in primary GBM cultures with or without radiation; type: cell-based, human
Method: (§1) “GAPDH” refers to glyceraldehyde-3-phosphate dehydrogenase as a control. For the cell cultures, CSCs were cultured in NSA media supplemented with B27, EGF and bFGF. Non-CSCs were grown in DMEM:F12 with 10% FBS. MGMT methylation and protein expression analysis of each culture was characterized. TMZ or VAL-083 was added to the cultures in the indicated concentrations. Depending on the experiment, cells were also irradiated with 2 Gy in a Cesium irradiator. For assays, cell cycle analysis was performed with Propidium Iodide staining and FACs analysis. Cell viability was analyzed with CellTiter-Glo™ and read on a Promega GloMax™. […] In FIG. 4, “1° GBM” refers to primary glioblastoma multiforme cell cultures.
In FIG. 17, TMZ (50 μM) or dianhydrogalactitol (“VAL-083”) (5 μM) were added to primary CSC cultures at various doses with or without irradiation (2 Gy). Shown are cell cycle profile analysis at day 4 post treatment (A,C) and cell viability analysis at day 6 post treatment (B,D) for the paired CSC (A,B) and non-CSC (C,D) 7996 culture.
In FIG. 18, dianhydrogalactitol (“VAL-083”) was added to primary CSC cultures at various doses (1, 2.5 and 5 μM) with or without irradiation (2 Gy). Shown are cell cycle profile analysis at day 4 post treatment (A,C) and cell viability analysis at day 6 post treatment (B,D) for two different patient-derived CSC cultures, 7996 (A,B) and 8565 (C,D).

[4] = Stability of reconstituted dianhydrogalactitol stock solution; type: physicochemical; conditions: 8 mg/mL in 0.9% sodium chloride for injection
Method: Dianhydrogalactitol (DAG) was provided as a lyophilized product at 40 mg of DAG per vial. For administration, 5 mL of 0.9% sodium chloride for injection, USP (saline) was added to yield a DAG solution with a concentration of 8 mg/mL. This stock solution was stable for 4 hours at room temperature or for 24 hours at 4° C. Further dilutions were made to prepare solutions of injection of 0.9 mg/mL (for administration of 0.18 mg/mouse in 0.2 mL; diluted from the 8 mg/mL reconstituted solution); of 0.45 mg/mL (for administration of 0.09 mg/mouse in 0.2 mL; a 1 to 2 dilution of the 0.9 mg/mL solution); and of 0.225 mg/mL (for administration of 0.045 mg/mouse in 0.2 mL; a 1 to 2 dilution of the 0.45 mg/mL solution).

[5] = system: cancer stem cells (BT74, GBM4 and GBM8); conditions: neurosphere growth assays; Hu et al. 2012; cited from earlier work
[6] = system: CSC and non-CSC cultures derived from primary GBM tissue; assay: Cell cycle analysis (propidium iodide staining, FACS) in primary GBM cultures; type: cell-based, human
Method: as §1
In FIG. 16, cells were treated with either increasing doses of TMZ (5, 50 100 and 200 μM) or dianhydrogalactitol (“VAL-083”) (1, 5, 25 and 100 μM) and cell cycle analysis was performed 4 days post treatment.
Additional experiments were performed to test the effect of the duration of drug administration. […] Dianhydrogalactitol was left on for the duration of the treatment.

Substance: dianhydrogalactitol
- blood-brain barrier passage [1]: readily crosses the blood-brain barrier and accumulates in brain tissue
- pharmacokinetics, dose dependence ([2]; dose cohorts of the current trial): linear
- plasma half-life ([2]; i.v., patients): 1 to 2 h
- effect in combination with radiation ([3]; 1, 2.5 and 5 μM with or without irradiation (2 Gy), CSC cultures 7996 and 8565): acts as a radiosensitizer in primary CSC cultures; also recorded: potential additive effect of dianhydrogalactitol with radiation
- reduction in cell viability with dianhydrogalactitol plus radiation ([3]; 7996 GNS (CSC), low concentration such as 1 μM, radiation): 20%
- cell viability in TMZ-resistant cultures ([3]; VAL-083 5 μM, paired CSC and non-CSC 7996 culture, viability day 6 post treatment): decreases cell viability in TMZ-resistant cultures
- stability of stock solution ([4]; 4° C.): 24 h
- stability of stock solution ([4]; room temperature): 4 h
- inhibition of growth of cancer stem cells [5]: 80-100%
- cell death, concentration compared with temozolomide ([6]; CSC and non-CSC cultures, FACS profiles (FIGS. 7-9)): cause cell death at lower concentrations than temozolomide
- cell cycle arrest in TMZ-resistant cultures ([6]; VAL-083 1, 5, 25 and 100 μM, cell cycle analysis 4 days post treatment, paired CSC and non-CSC): exhibited sensitivity to VAL-083, even at single-micromolar doses
- cell cycle arrest and loss of cell viability, summary ([6]; all cultures tested, independent of MGMT status and stem versus non-stem): cell cycle arrest and loss of cell viability in nearly all cultures tested
- effect of duration of drug exposure on cell cycle ([6]; washed out after 3 hours versus left on, 7996 GNS, 8279 GNS, 7996 ML, 8565 ML): less effect when washed out after 3 hours
